Where two headings read alike, the source gives them in different places. Residues, ends and D or L forms follow the SMILES beside them. No end group written: not given here.

What all share (format): cell-based
Data set [1] deals with red blood cells (erythrocytes). Nature of the data set: Hemolytic activity of the peptides (hemoglobin release, absorbance at 412 nm). Here is the method:
Hemolysis as defined herein is an in vitro assay where the compounds tendency to lyse red blood cells is determined. Presumably, the compounds that are less hemolytic will be less toxic in vivo. Increasing amounts of compound are added to solutions containing red blood cells and left for a specified time and then lysis is determined spectrophotometrically by measuring hemoglobin release.
A small volume of a suspension of erythrocytes (about 100 million) is kept on ice with a specific amount of lytic peptide. The cells are then placed in a 37° C. water bath for 10 min, vortexed and centrifuged at 1000 g for 2 min. The supernatant was removed and the amount of hemoglobin that was released was determined by the samples' absorbance at 412 nm. Control values without added peptide were subtracted from the absorbance readings.
The numerical difference between the value of the mean of hemolysis and the mean of the activity is a useful way to determine those peptides having the most desired activity.

In a further data set the test system is bacteria. Nature of the data set: Antibacterial activity of the peptides, broth microdilution MIC, mean activity (Table II). The following applies: overnight incubation (18 to 24 h). As for the experimental part:
(§1) Minimum Inhibitory Concentration or MIC for the purpose of this invention is the lowest concentration of an antimicrobial that will inhibit the visible growth of a microorganism after overnight incubation. Minimum inhibitory concentrations are important in diagnostic laboratories to confirm resistance of microorganisms to an antimicrobial agent and also to monitor the activity of new antimicrobial agents. A MIC is generally regarded as the most basic laboratory measurement of the activity of an antimicrobial agent against an organism. MBC is defined as the lowest concentration of an antimicrobial agent needed to kill 99.9% of the initial organism inoculum. Presently, specific guidelines for interpretation are not available; therefore, a clinician knowledgeable in both bactericidal testing and infectious diseases should be available to interpret the results.
(§2) MICs were determined by the broth microdilution method described by the National Committee for Clinical Laboratory Standards (17). Serial twofold dilutions of each peptide solution were prepared (final volume, […]) in microtiter trays with appropriate medium. Each dilution series included control wells containing bacteria without peptide. A total of […] of the adjusted inoculum (100,000 organisms) was added to each well, and then the trays were incubated at
(§3) in ambient air overnight (18 to 24 h). The MIC of each peptide for each isolate was read as the lowest concentration of peptide that inhibited visible growth of the organism.
The above in vitro tests and analyses were conducted on a set of designed peptides of the present invention; and, for comparative purposes, naturally derived molecules.
In general terms: Broth dilution looks for growth in wells or tubes with falling amounts of substance.

The subject of data set [2] is agrobacterium, Sinorhizobium, Xanthomonas. Nature of the data set: MIC by broth microdilution, mean over B1-B3. The following applies: mean of MIC for B1, B2, B3. As for the experimental part:
as §1, §2, §3

In the next data set the test system is Xanthomonas. Nature of the data set: MIC by broth microdilution. Set-up: unit not given here. Here is the method: as §1, §2, §3
For a further data set, the system named is agrobacterium. The experiment in a line: MIC by broth microdilution. The arrangement: unit not given here. As for the experimental part:
as §1, §2, §3

The subject of the next data set is Sinorhizobium. Nature of the data set: MIC by broth microdilution. The arrangement: unit not given here. Here is the method:
as §1, §2, §3

[3] abbreviates: erythrocytes, 37° C. for 10 min.

`CC[C@H](C)[C@H](NC(=O)[C@H](CCCCN)NC(=O)[C@H](C)NC(=O)[C@H](CCCNC(=N)N)NC(=O)[C@H](CC(C)C)NC(=O)[C@H](CCCNC(=N)N)NC(=O)[C@@H](NC(=O)[C@H](CCCCN)NC(=O)[C@@H](NC(=O)[C@H](CCCCN)NC(=O)[C@H](C)NC(=O)[C@H](CCCNC(=N)N)NC(=O)[C@H](CC(C)C)NC(=O)[C@H](CCCCN)NC(=O)[C@@H](N)Cc1ccccc1)C(C)C)[C@@H](C)CC)C(=O)N[C@@H](CCCCN)C(=O)N[C@@H](CC(C)C)C(=O)O` [AGM 155] (H-FKLRAKVKIRLRAKIKL-OH; N-terminus and C-terminus assumed): the “Mean of Hemolysis” value in data set [1] worked out at 1.6 µM.
`CC[C@H](C)[C@H](NC(=O)[C@H](CCCCN)NC(=O)[C@@H](NC(=O)[C@H](CCCNC(=N)N)NC(=O)[C@H](CC(C)C)NC(=O)[C@H](CCCNC(=N)N)NC(=O)[C@H](C)NC(=O)[C@H](CCCCN)NC(=O)[C@@H](NC(=O)[C@H](CCCCN)NC(=O)[C@@H](N)Cc1ccccc1)[C@@H](C)CC)C(C)C)C(=O)N[C@@H](CCCCN)C(=O)N[C@@H](C)C(=O)N[C@@H](CCCNC(=N)N)C(=O)N[C@@H](CC(C)C)C(=O)N[C@@H](CCCCN)C(=O)N[C@@H](CC(C)C)C(=O)O` [AGM 176] (H-FKIKARLRVKIKARLKL-OH; N-terminus and C-terminus assumed): in data set [1], the “Mean of Hemolysis” value came to 1.3 µM.
Same read-out and setting: for `CC[C@H](C)[C@H](NC(=O)[C@H](CCCNC(=N)N)NC(=O)[C@H](CC(C)C)NC(=O)[C@H](CCCCN)NC(=O)[C@@H](NC(=O)[C@H](CCCCN)NC(=O)[C@H](C)NC(=O)[C@H](CCCNC(=N)N)NC(=O)[C@@H](NC(=O)[C@H](CCCNC(=N)N)NC(=O)[C@@H](N)Cc1ccccc1)[C@@H](C)CC)C(C)C)C(=O)N[C@@H](CCCNC(=N)N)C(=O)N[C@@H](C)C(=O)N[C@@H](CCCCN)C(=O)N[C@H](C(=O)N[C@@H](CCCNC(=N)N)C(=O)N[C@@H](CC(C)C)C(=O)O)C(C)C` [AGM 178] (H-FRIRAKVKLRIRAKVRL-OH; N-terminus and C-terminus assumed) the value was 1.2 µM; for `CC[C@H](C)[C@H](NC(=O)[C@H](CCCNC(=N)N)NC(=O)[C@H](C)NC(=O)[C@H](CCCCN)NC(=O)[C@@H](NC(=O)[C@H](CCCCN)NC(=O)[C@H](CC(C)C)NC(=O)[C@H](CCCNC(=N)N)NC(=O)[C@@H](NC(=O)[C@H](CCCNC(=N)N)NC(=O)[C@H](C)NC(=O)[C@H](CCCCN)NC(=O)[C@@H](NC(=O)[C@H](CCCNC(=N)N)NC(=O)[C@@H](N)Cc1ccccc1)C(C)C)[C@@H](C)CC)C(C)C)C(=O)N[C@@H](CCCNC(=N)N)C(=O)N[C@@H](CC(C)C)C(=O)O` [AGM 179] (H-FRVKARIRLKVKARIRL-OH; N-terminus and C-terminus assumed), 2.1 µM.
Take `CC[C@H](C)[C@H](NC(=O)[C@H](CCCNC(=N)N)NC(=O)[C@@H]1CCCN1C(=O)[C@H](Cc1cnc[nH]1)NC(=O)[C@@H]1CCCN1C(=O)[C@@H]1CCCN1C(=O)[C@H](CCCNC(=N)N)NC(=O)[C@@H]1CCCN1C(=O)[C@H](CCC(N)=O)NC(=O)[C@@H]1CCCN1C(=O)[C@@H](NC(=O)[C@H](Cc1ccc(O)cc1)NC(=O)[C@@H](NC(=O)[C@@H]1CCCN1C(=O)[C@H](CCCNC(=N)N)NC(=O)[C@H](CC(N)=O)NC(=O)[C@H](CC(N)=O)NC(=O)CN)C(C)C)[C@@H](C)CC)C(=O)O` [Apidaecin IA] (H-GNNRPVYIPQPRPPHPRI-OH): in data set [1], the “Mean of Hemolysis” value is 1.6 µM. For the same compound, the “Mean Activity” value with bacteria was found to be 20.67 µM.
As to `CC[C@H](C)[C@H](NC(=O)CNC(=O)[C@H](CC(N)=O)NC(=O)[C@H](CCCNC(=N)N)NC(=O)[C@@H](NC(=O)[C@H](CC(N)=O)NC(=O)[C@H](CCCNC(=N)N)NC(=O)CNC(=O)[C@H](CCSC)NC(=O)[C@H](CCCCN)NC(=O)[C@H](CCC(=O)O)NC(=O)[C@@H](NC(=O)[C@H](CCCCN)NC(=O)[C@H](CCCCN)NC(=O)[C@H](Cc1ccccc1)NC(=O)[C@@H](NC(=O)[C@H](CCCCN)NC(=O)[C@H](Cc1c[nH]c2ccccc12)NC(=O)[C@@H](N)CCCCN)C(C)C)[C@@H](C)CC)[C@@H](C)CC)C(=O)N[C@H](C(=O)N[C@@H](CCCCN)C(=O)N[C@@H](C)C(=O)NCC(=O)N1CCC[C@H]1C(=O)N[C@@H](C)C(=O)N[C@H](C(=O)N[C@@H](C)C(=O)N[C@H](C(=O)N[C@@H](CC(C)C)C(=O)NCC(=O)N[C@@H](CCC(=O)O)C(=O)N[C@@H](C)C(=O)N[C@@H](CCCCN)C(=O)N[C@@H](C)C(=O)N[C@@H](CC(C)C)C(N)=O)C(C)C)[C@@H](C)CC)C(C)C` [Cecropin B] (H-KWKVFKKIEKMGRNIRNGIVKAGPAIAVLGEAKAL-NH2), the “Mean of Hemolysis” value in data set [1] was found to be 1.2 µM.
Take `CC[C@H](C)[C@H](NC(=O)[C@@H]1CCCN1C(=O)[C@H](CCCNC(=N)N)NC(=O)[C@@H]1CCCN1C(=O)[C@H](Cc1cnc[nH]1)NC(=O)[C@H](CO)NC(=O)[C@@H](NC(=O)[C@@H]1CCCN1C(=O)[C@H](CCCNC(=N)N)NC(=O)[C@@H]1CCCN1C(=O)[C@H](CO)NC(=O)[C@H](Cc1ccc(O)cc1)NC(=O)[C@@H]1CCCN1C(=O)[C@H](CCCNC(=N)N)NC(=O)[C@@H]1CCCN1C(=O)[C@H](CCCCN)NC(=O)CN)[C@@H](C)O)C(=O)N[C@@H](CCCNC(=N)N)C(=O)N[C@H](C(=O)O)C(C)C` [Drosocin] (H-GKPRPYSPRPTSHPRPIRV-OH): the “Mean of Hemolysis” value in data set [1] was 1.6 µM. For the same compound, in the data set with bacteria, the “Mean Activity” value turned out to be 21 µM.
On to `CC[C@H](C)[C@H](NC(=O)CN)C(=O)NCC(=O)N[C@@H](C)C(=O)N[C@H](C(=O)N[C@@H](CC(C)C)C(=O)N[C@@H](CCCCN)C(=O)N[C@H](C(=O)N[C@@H](CC(C)C)C(=O)N[C@H](C(=O)N[C@H](C(=O)NCC(=O)N[C@@H](CC(C)C)C(=O)N1CCC[C@H]1C(=O)N[C@@H](C)C(=O)N[C@@H](CC(C)C)C(=O)N[C@H](C(=O)N[C@@H](CO)C(=O)N[C@@H](Cc1c[nH]c2ccccc12)C(=O)N[C@H](C(=O)N[C@@H](CCCCN)C(=O)N[C@@H](CCCNC(=N)N)C(=O)N[C@@H](CCCCN)C(=O)N[C@@H](CCCNC(=N)N)C(=O)N[C@@H](CCC(N)=O)C(=O)N[C@@H](CCC(N)=O)C(N)=O)[C@@H](C)CC)[C@@H](C)CC)[C@@H](C)O)[C@@H](C)O)C(C)C)C(C)C` [Melittin], for which the “Mean of Hemolysis” value in data set [1] (setting [3]) was 100.8 µM. Besides, in the data set with bacteria, the “Mean Activity” value came to 1.33 µM.
Cecropin A: the “Mean Activity” value in the data set with bacteria worked out at 3.83 µM.
With Histatin-5, in data set [1], the “Mean of Hemolysis” value was 1.8 µM. In addition, the “Mean Activity” value in the data set with bacteria came out at 30 µM.
In the case of Indolicidin, the “Mean of Hemolysis” value in data set [1] was 2 µM. In addition, the “Mean Activity” value in the data set with bacteria was 5.33 µM.
For the compound “KAFKKAFKKFKKACFKGLCAKKFKKFAKKFAK [AGM 183]”, the Mean in data set [2] is 1.44. In addition, the “MIC for B3” value with Xanthomonas is on record as 1. The “MIC for B1” value with agrobacterium was found to be 3. The “MIC for B2” value against Sinorhizobium turned out to be 0.3.
On the same counts, the results for KARLKFCFKGLCIKIKVR [AGM 181] are 0.77, 1, 1 and 0.3.
On the same counts, the results for “KFAKKFKKFAKKFCFKGLCAFKKAFKKFKKAF [AGM 184]” are 0.77, 1, 1 and 0.3.
KIKARLCLGKFCIKARLK [AGM 182] yielded a Mean in data set [2] of 0.77. The “MIC for B3” value in the data set with Xanthomonas is given as 1. The “MIC for B1” value against agrobacterium is 1. Further, in the data set on Sinorhizobium, the “MIC for B2” value is recorded as 0.3.
For LL-37, in data set [1], the “Mean of Hemolysis” value worked out at 5.1 µM. The “Mean Activity” value with bacteria came to 1 µM.
As to “Magainin I: Magainins: 23 amino acids in length, derived from the African Clawed Frog (GIGKFLHSAGKFGKAFVGEIMKS; Magainin-1; UniProt P11006 37-59, looked up)”, the “Mean of Hemolysis” value in data set [1] amounted to 1.3 µM. Further, in the data set with bacteria, the “Mean Activity” value turned out to be 30 µM.
On the same counts, the results for Magainin II are 1.5 µM and 30 µM.
For the compound “Pyrrhocoricin (D): naturally derived molecule tested for comparative purposes (VDKGSYLPRPTPPRPIYNRN; not fully specified; UniProt P37362 1-20, looked up)”, the “Mean of Hemolysis” value in data set [1] (setting [3]) stood at 1.9 µM. For the same compound, the “Mean Activity” value in the data set on bacteria stood at 23.33 µM.
On the same counts, the results for “Pyrrhocoricin (H): naturally derived molecule tested for comparative purposes (VDKGSYLPRPTPPRPIYNRN; UniProt P37362 1-20, looked up)” are 1.6 µM and 26.67 µM.

For the origin of these results see patent US9163066B2, “Antimicrobial lytic peptides” (priority 2010, dated 2015).
